Reference: ChEMBL document CHEMBL1128029, “Synthesis and biological properties of a new series of anti-MRSA -lactams; 2-(thiazol-2-ylthio)carbapenems” (Bioorg Med Chem Lett, 1994)
In brackets after ≈: the same amount, converted by molar mass.

Assays:
Escherichia coli = assay: In vitro minimum inhibitory concentration against Escherichia coli NIHJ JC-2; type: functional
Klebsiella pneumoniae = assay: In vitro minimum inhibitory concentration against Klebsiella pneumoniae ATCC 10031; type: functional
[1] = system: Staphylococcus epidermidis; assay: In vitro minimum inhibitory concentration against Staphylococcus epidermidis IAM1296; type: functional
Staphylococcus aureus [2] = assay: In vitro minimum inhibitory concentration against Staphylococcus aureus MS9408; type: functional
Staphylococcus aureus [3] = assay: In vitro minimum inhibitory concentration against Staphylococcus aureus SP-7928; type: functional
Albumin = Albumin (Homo sapiens, UniProt P02768); assay: Binding affinity towards Human Serum albumin.
Staphylococcus aureus [4] = assay: In vitro minimum inhibitory concentration against Staphylococcus aureus 209p; type: functional
[5] = biological target: T1, Dipeptidase 1 (Sus scrofa) (UniProt P22412); assay: Time of enzyme-catalyzed hydrolysis from 500 uM to 400 uM in the presence of purified renal DHP-1 of swine
T1 sequence (whole entry): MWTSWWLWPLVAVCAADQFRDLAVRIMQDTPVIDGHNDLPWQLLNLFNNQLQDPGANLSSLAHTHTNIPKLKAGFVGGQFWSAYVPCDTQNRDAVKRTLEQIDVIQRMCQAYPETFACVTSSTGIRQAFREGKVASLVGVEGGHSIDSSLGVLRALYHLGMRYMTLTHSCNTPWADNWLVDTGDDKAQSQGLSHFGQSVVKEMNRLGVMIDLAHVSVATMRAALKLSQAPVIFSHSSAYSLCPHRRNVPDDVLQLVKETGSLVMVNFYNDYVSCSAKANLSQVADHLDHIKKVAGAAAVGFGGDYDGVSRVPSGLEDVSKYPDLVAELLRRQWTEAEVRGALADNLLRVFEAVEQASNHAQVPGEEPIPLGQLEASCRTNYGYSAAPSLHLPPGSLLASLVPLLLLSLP

Chain of Albumin (P02768 whole entry): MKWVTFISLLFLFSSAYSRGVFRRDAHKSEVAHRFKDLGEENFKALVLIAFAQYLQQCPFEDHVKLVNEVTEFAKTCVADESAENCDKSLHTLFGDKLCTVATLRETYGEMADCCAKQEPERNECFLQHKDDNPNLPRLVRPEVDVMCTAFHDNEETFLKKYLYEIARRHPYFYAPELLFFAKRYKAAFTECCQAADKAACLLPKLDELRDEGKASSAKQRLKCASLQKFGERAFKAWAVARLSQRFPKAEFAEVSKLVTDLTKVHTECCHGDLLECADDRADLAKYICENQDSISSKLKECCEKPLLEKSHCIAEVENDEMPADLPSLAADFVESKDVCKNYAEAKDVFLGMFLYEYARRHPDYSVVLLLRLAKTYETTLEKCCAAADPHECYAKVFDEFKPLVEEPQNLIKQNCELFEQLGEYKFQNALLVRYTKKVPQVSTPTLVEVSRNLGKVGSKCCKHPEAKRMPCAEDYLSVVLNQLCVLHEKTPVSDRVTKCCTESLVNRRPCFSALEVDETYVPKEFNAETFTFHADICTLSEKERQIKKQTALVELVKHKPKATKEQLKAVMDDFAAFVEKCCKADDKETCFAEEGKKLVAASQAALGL

| Structure (SMILES) | MIC (Escherichia coli) | MIC (Klebsiella pneumoniae) | MIC [1] | MIC (Staphylococcus aureus [2]) | MIC (Staphylococcus aureus [3]) | Binding (Albumin) | MIC (Staphylococcus aureus [4]) | TIME [5] |
| --- | --- | --- | --- | --- | --- | --- | --- | --- |
| Cc1ccc(-c2csc(SC3=C(C(=O)O)N4C(=O)[C@H]([C@@H](C)O)[C@H]4[C@H]3C)n2)cc1 | 12.5 µg/mL (≈ 30 µM) | 0.39 µg/mL (≈ 0.936 µM) | 0.025 µg/mL (≈ 0.06 µM) | 0.2 µg/mL (≈ 0.48 µM) | 3.13 µg/mL (≈ 7.51 µM) | > 94% | < 0.006 µg/mL | 0.153 h |
| C[C@@H](O)[C@H]1C(=O)N2C(C(=O)O)=C(Sc3nc(-c4ccc(CN)cc4)cs3)[C@H](C)[C@H]12 | 1.56 µg/mL (≈ 3.61 µM) | 0.2 µg/mL (≈ 0.463 µM) | 0.025 µg/mL (≈ 0.0579 µM) | 0.2 µg/mL (≈ 0.463 µM) | 1.56 µg/mL (≈ 3.61 µM) | 87% | < 0.006 µg/mL | – |
| C[C@@H](O)[C@H]1C(=O)N2C(C(=O)O)=C(Sc3nc(-c4cccnc4)cs3)[C@H](C)[C@H]12 | 6.25 µg/mL (≈ 15.5 µM) | 0.05 µg/mL (≈ 0.124 µM) | 0.025 µg/mL (≈ 0.062 µM) | 0.2 µg/mL (≈ 0.496 µM) | 1.56 µg/mL (≈ 3.87 µM) | 97% | < 0.013 µg/mL | 0.0533 h |
| C[C@@H](O)[C@H]1C(=O)N2C(C(=O)O)=C(SCCNC=N)C[C@H]12 [IMIPENEM ANHYDROUS] | 0.1 µg/mL (≈ 0.334 µM) | 0.1 µg/mL (≈ 0.334 µM) | 0.2 µg/mL (≈ 0.668 µM) | 0.78 µg/mL (≈ 2.61 µM) | 50 µg/mL (≈ 167 µM) | – | 0.013 µg/mL (≈ 0.0434 µM) | 0.2 h |
| C[C@@H](O)[C@H]1C(=O)N2C(C(=O)O)=C(Sc3nc(-c4ccccc4)cs3)[C@H](C)[C@H]12 | 6.25 µg/mL (≈ 15.5 µM) | 0.1 µg/mL (≈ 0.248 µM) | 0.025 µg/mL (≈ 0.0621 µM) | 0.1 µg/mL (≈ 0.248 µM) | 0.78 µg/mL (≈ 1.94 µM) | > 94% | < 0.013 µg/mL | 0.163 h |
| C[C@@H](O)[C@H]1C(=O)N2C(C(=O)O)=C(Sc3nc(-c4ccncc4)cs3)[C@H](C)[C@H]12 | 6.25 µg/mL (≈ 15.5 µM) | 0.2 µg/mL (≈ 0.496 µM) | 0.05 µg/mL (≈ 0.124 µM) | 0.2 µg/mL (≈ 0.496 µM) | 3.13 µg/mL (≈ 7.76 µM) | 97% | < 0.013 µg/mL | 0.267 h |
| C[C@@H](O)[C@H]1C(=O)N2C(C(=O)[O-])=C(Sc3nc(-c4cc[n+](C)cc4)cs3)[C@H](C)[C@H]12 | 0.39 µg/mL (≈ 0.934 µM) | 0.025 µg/mL (≈ 0.0599 µM) | 0.025 µg/mL (≈ 0.0599 µM) | 0.1 µg/mL (≈ 0.24 µM) | 1.56 µg/mL (≈ 3.74 µM) | 12% | < 0.006 µg/mL | 0.383 h |
| C[C@@H](O)[C@H]1C(=O)N2C(C(=O)O)=C(Sc3nc(-c4ccc(Cl)cc4)cs3)[C@H](C)[C@H]12 | 12.5 µg/mL (≈ 28.6 µM) | 0.2 µg/mL (≈ 0.458 µM) | 0.025 µg/mL (≈ 0.0572 µM) | 0.2 µg/mL (≈ 0.458 µM) | 1.56 µg/mL (≈ 3.57 µM) | > 94% | < 0.013 µg/mL | 0.165 h |
| C[C@@H](O)[C@H]1C(=O)N2C(C(=O)O)=C(Sc3nc(-c4ccc(C(N)=O)cc4)cs3)[C@H](C)[C@H]12 | 6.25 µg/mL (≈ 14 µM) | 0.1 µg/mL (≈ 0.224 µM) | 0.025 µg/mL (≈ 0.0561 µM) | 0.2 µg/mL (≈ 0.449 µM) | 1.56 µg/mL (≈ 3.5 µM) | 99% | < 0.006 µg/mL | 0.2 h |
| C[C@@H](O)[C@H]1C(=O)N2C(C(=O)O)=C(Sc3nc4ccccc4s3)[C@H](C)[C@H]12 | 25 µg/mL (≈ 66.4 µM) | 0.78 µg/mL (≈ 2.07 µM) | 0.2 µg/mL (≈ 0.531 µM) | 0.78 µg/mL (≈ 2.07 µM) | 3.13 µg/mL (≈ 8.31 µM) | > 94% | 0.025 µg/mL (≈ 0.0664 µM) | – |
| C[C@@H](O)[C@H]1C(=O)N2C(C(=O)[O-])=C(Sc3nc(-c4ccc[n+](CC(N)=O)c4)cs3)[C@H](C)[C@H]12 | 0.39 µg/mL (≈ 0.847 µM) | 0.05 µg/mL (≈ 0.109 µM) | 0.025 µg/mL (≈ 0.0543 µM) | 0.2 µg/mL (≈ 0.434 µM) | 1.56 µg/mL (≈ 3.39 µM) | 24% | < 0.006 µg/mL | 0.283 h |
| C[C@@H](O)[C@H]1C(=O)N2C(C(=O)O)=C(Sc3nc(-c4ccc(N)cc4)cs3)[C@H](C)[C@H]12 | 6.25 µg/mL (≈ 15 µM) | 0.05 µg/mL (≈ 0.12 µM) | 0.025 µg/mL (≈ 0.0599 µM) | 0.2 µg/mL (≈ 0.479 µM) | 1.56 µg/mL (≈ 3.74 µM) | 98% | < 0.013 µg/mL | 0.3 h |
| Cc1csc(SC2=C(C(=O)O)N3C(=O)[C@H]([C@@H](C)O)[C@H]3[C@H]2C)n1 | 3.13 µg/mL (≈ 9.19 µM) | 0.05 µg/mL (≈ 0.147 µM) | 0.05 µg/mL (≈ 0.147 µM) | 0.39 µg/mL (≈ 1.15 µM) | 3.13 µg/mL (≈ 9.19 µM) | 93% | 0.025 µg/mL (≈ 0.0734 µM) | 0.217 h |
| C[C@@H](O)[C@H]1C(=O)N2C(C(=O)O)=C(SCCN=CN)C[C@H]12 [IMIPENEM ANHYDROUS] | – | – | – | – | – | < 10% | – | – |
| C[C@@H](O)[C@H]1C(=O)N2C(C(=O)[O-])=C(Sc3nc(-c4ccc5cc[n+](C)cc5c4)cs3)[C@H](C)[C@H]12 | 3.13 µg/mL (≈ 6.69 µM) | 0.05 µg/mL (≈ 0.107 µM) | 0.013 µg/mL (≈ 0.0278 µM) | 0.05 µg/mL (≈ 0.107 µM) | 0.78 µg/mL (≈ 1.67 µM) | 59% | < 0.006 µg/mL | 0.2 h |
| C[C@@H](O)[C@H]1C(=O)N2C(C(=O)O)=C(Sc3ncc(-c4ccccc4)s3)[C@H](C)[C@H]12 | 25 µg/mL (≈ 62.1 µM) | 0.39 µg/mL (≈ 0.969 µM) | 0.39 µg/mL (≈ 0.969 µM) | 0.39 µg/mL (≈ 0.969 µM) | 12.5 µg/mL (≈ 31.1 µM) | > 94% | < 0.006 µg/mL | 0.25 h |
| C[C@@H](O)[C@H]1C(=O)N2C(C(=O)O)=C(Sc3nc(-c4ccc5ccncc5c4)cs3)[C@H](C)[C@H]12 | 12.5 µg/mL (≈ 27.6 µM) | 0.2 µg/mL (≈ 0.441 µM) | 0.025 µg/mL (≈ 0.0551 µM) | 0.1 µg/mL (≈ 0.22 µM) | 0.78 µg/mL (≈ 1.72 µM) | 99% | < 0.006 µg/mL | 0.162 h |
| C[C@@H](O)[C@H]1C(=O)N2C(C(=O)[O-])=C(Sc3nc(-c4ccc[n+](C)c4)cs3)[C@H](C)[C@H]12 | 0.39 µg/mL (≈ 0.934 µM) | 0.05 µg/mL (≈ 0.12 µM) | 0.025 µg/mL (≈ 0.0599 µM) | 0.2 µg/mL (≈ 0.479 µM) | 1.56 µg/mL (≈ 3.74 µM) | 7.8% | < 0.013 µg/mL | 0.467 h |
| Cc1nc(SC2=C(C(=O)O)N3C(=O)[C@H]([C@@H](C)O)[C@H]3[C@H]2C)sc1C | 3.13 µg/mL (≈ 8.83 µM) | 0.2 µg/mL (≈ 0.564 µM) | 0.1 µg/mL (≈ 0.282 µM) | 0.78 µg/mL (≈ 2.2 µM) | 6.25 µg/mL (≈ 17.6 µM) | > 75% | 0.025 µg/mL (≈ 0.0705 µM) | 0.383 h |
| CCCc1csc(SC2=C(C(=O)O)N3C(=O)[C@H]([C@@H](C)O)[C@H]3[C@H]2C)n1 | 12.5 µg/mL (≈ 33.9 µM) | 0.2 µg/mL (≈ 0.543 µM) | 0.05 µg/mL (≈ 0.136 µM) | 0.39 µg/mL (≈ 1.06 µM) | 3.13 µg/mL (≈ 8.49 µM) | 96% | 0.025 µg/mL (≈ 0.0678 µM) | 0.2 h |
| C[C@@H](O)[C@H]1C(=O)N2C(C(=O)[O-])=C(Sc3nc(-c4cc[n+](CC(N)=O)cc4)cs3)[C@H](C)[C@H]12 | 0.2 µg/mL (≈ 0.434 µM) | 0.025 µg/mL (≈ 0.0543 µM) | 0.05 µg/mL (≈ 0.109 µM) | 0.2 µg/mL (≈ 0.434 µM) | 1.56 µg/mL (≈ 3.39 µM) | 15% | < 0.006 µg/mL | 0.35 h |
| C[C@@H](O)[C@H]1C(=O)N2C(C(=O)O)=C(Sc3nccs3)[C@H](C)[C@H]12 | 0.78 µg/mL (≈ 2.39 µM) | 0.05 µg/mL (≈ 0.153 µM) | 0.1 µg/mL (≈ 0.306 µM) | 0.78 µg/mL (≈ 2.39 µM) | 12.5 µg/mL (≈ 38.3 µM) | 69% | 0.025 µg/mL (≈ 0.0766 µM) | 0.25 h |
